Results: patent US20240199623A1 (ILDONG PHARMACEUTICAL CO., LTD., priority 2020, published 2024)
Values after ≈ are worked out from the molar mass of the structure shown. Where two headings read alike, the source gives them in different places.

What was measured:
[1] = biological target: T1, Human recombinant PDE4A1A (Homo sapiens, UniProt P27815); experiment: Human phosphodiesterase 4 (PDE4) inhibition, PDE4A1A; assay type: biochemical; settings: read-out: % inhibition range at 10 uM PDE4A1A
T1 construct: purchased BPS Bioscience; host or cells: insect Sf9 cells
Description: (§1) […] Human recombinant PDE4A1A, PDE4B 1, PDE4C1 and PDE4D2 are respectively expressed in each host cell (insect Sf9 cells, BPS Bioscience). Preincubation of 10 μM test compounds or vehicle was proceeded with 20 ng/ml PDE4A1A or 4 ng/ml PDE4B 1 or 8 ng/ml PDE4C1 or 5 ng/ml PDE4D2 enzyme in Tris-HCl buffer pH 7.2 for 15 minutes at 25° C. 100 nM fluorescein (FAM) labeled cAMP for another 30 minutes incubation period was added in order to initiate the enzymatic reaction and addition of IMAP binding solution was followed for its termination. Specifically, IMAP complexes with phosphate groups on nucleotide monophosphate generated from cyclic nucleotides through PDE activity. The amount of complex formed is determined by reading spectrofluorimetrical signal at 470 nm/525 nm.

Human recombinant PDE4C1 = biological target: T2, Human recombinant PDE4C1 (Homo sapiens, UniProt Q08493); experiment: Human phosphodiesterase 4 (PDE4) inhibition, PDE4C1; assay type: biochemical; settings: read-out: % inhibition range at 10 uM PDE4C1
T2 construct: purchased BPS Bioscience; host or cells: insect Sf9 cells
Description: as §1

Human recombinant PDE4D2 = biological target: T3, Human recombinant PDE4D2 (Homo sapiens, UniProt Q08499); experiment: Human phosphodiesterase 4 (PDE4) inhibition, PDE4D2; assay type: biochemical; settings: read-out: % inhibition range at 10 uM PDE4D2
T3 construct: purchased BPS Bioscience; host or cells: insect Sf9 cells
Description: as §1

[2] = biological target: T4, Human recombinant PDE4B 1 (Homo sapiens, UniProt Q07343); experiment: Human phosphodiesterase 4 (PDE4) inhibition, PDE4B 1; assay type: biochemical; settings: read-out: % inhibition range at 10 uM PDE4B1
T4 construct: purchased BPS Bioscience; host or cells: insect Sf9 cells
Description: as §1

[3] = Phosphate-buffered saline (PBS) solubility of compounds; assay type: physicochemical; settings: aqueous buffer, thermodynamic from solid, PBS pH 7.5, 0.5 mg/mL, vortexed 90 min, filtered, LC-MS/MS, read-out: Solubility Range
Description: PBS solutions (pH 7.5) were prepared according to the following compositions and stored at 4° C. Test compounds were dissolved in PBS (pH 7.5) at 0.5 mg/mL and vortexed for 90 min. The PBS solution was sequentially filtered through a 0.45, 1.2, […] syringe filter. Concentration of test compounds were determined using LC-MS/MS with appropriate dilution of the samples.

human wild type-CFTR [4] = biological target: T5, human wild type-CFTR (Homo sapiens, UniProt P13569); experiment: Cell-based YFP assay; design: expressed in transfected cells; host or cells: CHO-K1 (Chinese hamster ovary); settings: CHO-K1 cells expressing human wild type-CFTR and YFP-H148Q/I152L; forskolin 20 μM = 100% activity; read-out: Cell-based YFP Assay (EC50) Concentration Range
Method in brief: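 I⁻-driven YFP fluorescence quenching at 37 °C: 2 s baseline, addition of 140 mM iodide solution, then 14 s of readings at 0.4 s intervals. Cells were CHO-K1 expressing human wild-type CFTR plus YFP-H148Q/I152L. EC50 derived from averaged triplicates.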

human wild type-CFTR [5] = biological target: T5, human wild type-CFTR; experiment: Short-circuit current measurement; assay type: cell-based; design: expressed in transfected cells; settings: FRT cells expressing human wild type-CFTR; Forskolin 20 μM signal used as 100% activity; read-out: Short-circuit current measurement (EC50) Concentration range
Method in brief: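 FRT monolayers stably carrying human wild-type CFTR were mounted in Ussing chambers; forskolin, compounds and the inhibitor CFTRinh-172 went to apical and basolateral sides. Read-outs were apical membrane current and short-circuit current, recorded at 4 Hz.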

C57BL/6 female mice = experiment: Scopolamine induced tear volume reduction model; assay type: in vivo, mouse; settings: scopolamine-injected mice, ophthalmic solution topically on both eyes 3 times a day, phenol red thread; average if evaluated twice
Method in brief: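 Seven-week-old female C57BL/6 mice received scopolamine (0.2 ml of 2.5 mg/mL) s.c. 3 times daily; test compounds in PBS with 1% surfactant applied topically to both eyes 3 times daily. Tear volume measured by phenol red thread length before dosing and 1 h after last administration; duplicate evaluations averaged.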

T2 sequence (Q08493 whole entry): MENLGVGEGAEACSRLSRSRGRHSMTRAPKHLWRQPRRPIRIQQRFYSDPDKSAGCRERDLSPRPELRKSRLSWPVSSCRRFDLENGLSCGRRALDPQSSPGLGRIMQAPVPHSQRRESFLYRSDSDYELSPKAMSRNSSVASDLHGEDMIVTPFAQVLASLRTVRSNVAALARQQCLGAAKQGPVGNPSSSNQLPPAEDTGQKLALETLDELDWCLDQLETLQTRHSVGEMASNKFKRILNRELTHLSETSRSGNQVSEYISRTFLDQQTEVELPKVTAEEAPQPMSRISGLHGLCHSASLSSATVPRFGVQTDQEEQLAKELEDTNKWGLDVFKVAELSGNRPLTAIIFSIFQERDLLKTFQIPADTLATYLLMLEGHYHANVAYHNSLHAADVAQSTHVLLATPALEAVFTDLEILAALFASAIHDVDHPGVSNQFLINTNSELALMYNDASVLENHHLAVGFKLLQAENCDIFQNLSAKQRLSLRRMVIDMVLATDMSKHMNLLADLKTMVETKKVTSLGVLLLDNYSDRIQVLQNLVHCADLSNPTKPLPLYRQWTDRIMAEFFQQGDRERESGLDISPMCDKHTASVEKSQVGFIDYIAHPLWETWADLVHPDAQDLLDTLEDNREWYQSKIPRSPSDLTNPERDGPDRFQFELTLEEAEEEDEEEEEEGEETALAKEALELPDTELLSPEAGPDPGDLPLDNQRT
T1 sequence (P27815 1-647 isoform P27815-4): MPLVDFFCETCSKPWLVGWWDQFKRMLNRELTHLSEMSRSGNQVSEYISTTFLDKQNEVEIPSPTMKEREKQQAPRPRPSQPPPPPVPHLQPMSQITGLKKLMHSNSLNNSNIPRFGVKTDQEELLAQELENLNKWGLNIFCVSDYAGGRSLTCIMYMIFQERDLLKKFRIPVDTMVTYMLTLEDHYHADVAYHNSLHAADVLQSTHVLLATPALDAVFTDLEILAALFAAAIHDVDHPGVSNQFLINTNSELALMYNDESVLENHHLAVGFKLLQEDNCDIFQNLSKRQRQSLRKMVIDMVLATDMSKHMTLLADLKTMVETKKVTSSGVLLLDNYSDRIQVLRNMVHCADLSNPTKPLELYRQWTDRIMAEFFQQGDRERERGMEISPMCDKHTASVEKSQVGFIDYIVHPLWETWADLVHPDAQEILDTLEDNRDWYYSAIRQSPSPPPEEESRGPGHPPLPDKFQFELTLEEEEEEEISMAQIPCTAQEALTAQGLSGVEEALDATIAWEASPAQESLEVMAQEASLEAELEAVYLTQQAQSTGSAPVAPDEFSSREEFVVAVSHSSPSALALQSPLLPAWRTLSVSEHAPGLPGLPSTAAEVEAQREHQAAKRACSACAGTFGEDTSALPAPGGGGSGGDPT
T5 sequence (P13569 whole entry): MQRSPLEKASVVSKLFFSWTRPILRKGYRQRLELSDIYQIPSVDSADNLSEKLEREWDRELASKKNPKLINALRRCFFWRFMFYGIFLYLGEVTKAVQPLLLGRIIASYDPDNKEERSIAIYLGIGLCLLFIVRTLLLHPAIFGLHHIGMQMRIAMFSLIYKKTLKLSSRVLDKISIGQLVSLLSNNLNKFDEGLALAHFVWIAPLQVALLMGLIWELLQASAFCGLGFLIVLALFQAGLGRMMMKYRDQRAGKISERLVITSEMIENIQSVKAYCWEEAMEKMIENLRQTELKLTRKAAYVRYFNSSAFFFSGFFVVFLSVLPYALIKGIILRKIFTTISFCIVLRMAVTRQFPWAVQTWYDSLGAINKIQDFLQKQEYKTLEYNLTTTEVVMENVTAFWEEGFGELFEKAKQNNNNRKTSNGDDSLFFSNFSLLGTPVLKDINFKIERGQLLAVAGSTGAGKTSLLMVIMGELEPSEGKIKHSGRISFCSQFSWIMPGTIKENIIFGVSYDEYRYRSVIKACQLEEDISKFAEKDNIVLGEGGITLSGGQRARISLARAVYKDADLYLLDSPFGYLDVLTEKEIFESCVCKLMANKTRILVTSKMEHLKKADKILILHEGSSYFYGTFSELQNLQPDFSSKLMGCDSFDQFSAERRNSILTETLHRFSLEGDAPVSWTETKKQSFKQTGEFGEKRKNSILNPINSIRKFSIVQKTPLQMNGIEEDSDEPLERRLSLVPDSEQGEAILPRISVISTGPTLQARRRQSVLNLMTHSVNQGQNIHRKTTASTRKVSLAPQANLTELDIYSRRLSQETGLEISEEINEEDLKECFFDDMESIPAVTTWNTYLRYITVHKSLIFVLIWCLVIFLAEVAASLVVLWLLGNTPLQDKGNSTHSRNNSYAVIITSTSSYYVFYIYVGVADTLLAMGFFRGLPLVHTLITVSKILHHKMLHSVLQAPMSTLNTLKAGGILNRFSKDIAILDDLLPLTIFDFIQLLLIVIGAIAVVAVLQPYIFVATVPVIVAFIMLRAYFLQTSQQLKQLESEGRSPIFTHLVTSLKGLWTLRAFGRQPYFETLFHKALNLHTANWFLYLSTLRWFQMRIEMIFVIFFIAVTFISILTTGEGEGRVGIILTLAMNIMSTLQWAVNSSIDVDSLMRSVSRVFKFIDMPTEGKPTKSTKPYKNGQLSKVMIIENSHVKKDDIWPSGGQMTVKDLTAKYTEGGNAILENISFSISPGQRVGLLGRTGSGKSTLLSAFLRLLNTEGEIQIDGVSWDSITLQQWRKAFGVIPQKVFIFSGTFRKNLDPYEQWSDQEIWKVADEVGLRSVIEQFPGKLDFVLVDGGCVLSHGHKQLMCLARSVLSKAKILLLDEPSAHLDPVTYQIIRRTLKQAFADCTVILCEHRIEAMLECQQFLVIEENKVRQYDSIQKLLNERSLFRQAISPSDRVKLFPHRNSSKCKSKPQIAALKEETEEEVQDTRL
T3 sequence (Q08499 303-809 limits assumed): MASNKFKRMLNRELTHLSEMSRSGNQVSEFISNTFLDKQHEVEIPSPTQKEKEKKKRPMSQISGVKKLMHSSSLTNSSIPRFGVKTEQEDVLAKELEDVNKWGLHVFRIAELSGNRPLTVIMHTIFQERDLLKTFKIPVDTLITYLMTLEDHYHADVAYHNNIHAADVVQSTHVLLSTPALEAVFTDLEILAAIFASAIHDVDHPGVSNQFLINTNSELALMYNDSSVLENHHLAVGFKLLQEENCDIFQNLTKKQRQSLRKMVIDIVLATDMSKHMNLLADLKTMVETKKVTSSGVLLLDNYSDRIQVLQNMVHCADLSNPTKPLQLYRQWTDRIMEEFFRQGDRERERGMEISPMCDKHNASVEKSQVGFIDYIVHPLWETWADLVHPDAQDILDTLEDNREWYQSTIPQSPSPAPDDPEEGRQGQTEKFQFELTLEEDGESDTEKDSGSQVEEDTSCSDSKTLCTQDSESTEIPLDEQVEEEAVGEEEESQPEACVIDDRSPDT
T4 sequence (Q07343 whole entry): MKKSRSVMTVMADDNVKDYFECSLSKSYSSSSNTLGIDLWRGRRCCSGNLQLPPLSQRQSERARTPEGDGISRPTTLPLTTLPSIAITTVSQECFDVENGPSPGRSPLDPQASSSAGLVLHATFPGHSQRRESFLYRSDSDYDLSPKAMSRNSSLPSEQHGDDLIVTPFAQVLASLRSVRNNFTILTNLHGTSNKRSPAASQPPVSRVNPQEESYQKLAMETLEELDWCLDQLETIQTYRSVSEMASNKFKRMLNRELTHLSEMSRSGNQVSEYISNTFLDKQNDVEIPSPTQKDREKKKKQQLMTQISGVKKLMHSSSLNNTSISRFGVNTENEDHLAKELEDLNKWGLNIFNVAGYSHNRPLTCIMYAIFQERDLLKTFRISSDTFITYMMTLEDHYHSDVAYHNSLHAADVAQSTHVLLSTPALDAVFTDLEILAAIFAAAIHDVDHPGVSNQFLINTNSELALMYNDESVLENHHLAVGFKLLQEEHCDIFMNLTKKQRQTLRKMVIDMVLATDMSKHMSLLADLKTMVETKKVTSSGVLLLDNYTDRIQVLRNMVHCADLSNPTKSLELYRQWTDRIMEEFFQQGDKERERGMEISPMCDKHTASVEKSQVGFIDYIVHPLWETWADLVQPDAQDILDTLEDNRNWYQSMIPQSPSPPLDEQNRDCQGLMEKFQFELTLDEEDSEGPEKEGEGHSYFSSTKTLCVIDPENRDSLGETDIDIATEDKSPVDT

Row | SMILES | inhibition at 10 µM ([1]; 10 uM test compound) | inhibition at 10 µM (Human recombinant PDE4C1; 10 uM test compound) | inhibition at 10 µM (Human recombinant PDE4D2; 10 uM test compound) | inhibition at 10 µM ([2]; 10 uM test compound) | solubility at 90 min [3] | EC50 (human wild type-CFTR [4]) | EC50 (human wild type-CFTR [5]) | Ratio of tear volume (test compound to vehicle) (C57BL/6 female mice) | inhibition at 10 µM [1] | inhibition at 10 µM (Human recombinant PDE4C1) | inhibition at 10 µM (Human recombinant PDE4D2) | inhibition at 10 µM [2]
1 | COc1ccc(-c2ccnc3cc(C(=O)Nc4ccc(C(=O)N5CCOCC5)cc4)nn23)cc1OC [Compound 41, 7-(3,4-dimethoxyphenyl)-N-(4-(morpholine-4-carbonyl)phenyl)pyrazolo [1,5-a]pyrimidine-2-carboxamide] | > 80% | > 80% | > 80% | > 80% | < 0.1 µg/mL |  |  |  |  |  |  | 
2 | COC(=O)c1ccc(CNC(=O)c2cc3nccc(-c4ccc(OC)c(OC)c4)n3n2)cc1 [Compound 12, methyl 4-((7-(3,4-dimethoxyphenyl)pyrazolo [1,5-a]pyrimidine-2-carboxamido)methyl) benzoate] | > 80% | 50 to 80% | 50 to 80% | 50 to 80% | < 0.1 µg/mL | 200 to 2000 nM | ≥ 2000 nM |  |  |  |  | 
3 | COc1ccc(-c2ccnc3cc(C(=O)NC45CCC(C(=O)N6CCN(C)CC6)(CC4)CC5)nn23)cc1OC [Compound 151, 7-(3,4-dimethoxyphenyl)-N-(4-(4-methylpiperazine-1-carbonyl)bicyclo[2.2.2]octan-1-yl)pyrazolo[1,5-a]pyrimidine-2-carboxamide] | > 80% | > 80% | > 80% | > 80% | > 10 µg/mL | < 200 nM | 200 to 2000 nM | 1.40 |  |  |  | 
4 | COc1ccc(-c2ccnc3cc(C(=O)Nc4ccc(N5CCOCC5)cn4)nn23)cc1OC [Compound 205, 7-(3,4-dimethoxyphenyl)-N-(5-morpholinopyridin-2-yl)pyrazolo[1,5-a]pyrimidine-2-carboxamide] | > 80% | > 80% | > 80% | > 80% |  | < 200 nM | < 200 nM | 1.12 |  |  |  | 
5 | COC(=O)c1ccccc1NC(=O)c1cc2nccc(-c3ccc(OC)c(OC)c3)n2n1 [Compound 7, methyl 2-(7-(3,4-dimethoxyphenyl)pyrazolo [1,5-a]pyrimidine-2-carboxamido)benzoate] | < 50% | < 50% | < 50% | < 50% | < 0.1 µg/mL |  |  |  |  |  |  | 
6 | COc1ccc(-c2ccnc3cc(C(=O)N[C@H]4CC[C@H](C(=O)OC)CC4)nn23)cc1OC [Compound 10, methyl (1r,4r)-4-(7-(3,4-dimethoxyphenyl)pyrazolo[1,5-a]pyrimidine-2-carboxamido)cyclohexane-1-carboxylate] | > 80% | > 80% | > 80% | > 80% | 0.1 to 10 µg/mL (≈ 0.228 to 22.8 µM) |  |  |  |  |  |  | 
7 | COC(=O)c1ccc(NC(=O)c2cc3nccc(-c4ccc(OC)c(OC)c4)n3n2)cc1 [Compound 11, methyl 4-(7-(3,4-dimethoxyphenyl)pyrazolo[1,5-a]pyrimidine-2-carboxamido)benzoate] |  |  |  |  | < 0.1 µg/mL | < 200 nM | < 200 nM |  | > 80% | > 80% | > 80% | > 80%
8 | COc1ccc(-c2ccnc3cc(C(=O)Nc4ccc(C(=O)N5CCOCC5)cn4)nn23)cc1OC [Compound 135, 7-(3,4-dimethoxyphenyl)-N-(5-(morpholine-4-carbonyl)pyridin-2-yl) pyrazolo[1,5-a] pyrimidine-2-carboxamide] | > 80% | > 80% | > 80% | > 80% | < 0.1 µg/mL | < 200 nM | < 200 nM |  |  |  |  | 
